Source: patent US20230201192A1, “METHODS AND MATERIALS FOR ASSESSING AND TREATING CANCER” (Mayo Foundation for Medical Education and Research, priority 2020, published 2023)
pIC50: −log10 of the molar value.

What was measured:
[1] = tested on: BIP, cleaved PARP, cleaved caspase 3, c-Myc, cyclin D1, survivin; assay: Western blot analysis of ER stress, apoptosis and c-Myc signaling; assay type: cell-based
Procedure: HCC, RCC, CCA, and MM cell lines (2000 cells/well) were incubated with DMSO control (1:1000), 500 ug/ml bovine serum albumin-oleic acid (BSA-OA) and/or 1 μM SSI-4 for three days and determined for cell viability (FIG. 4A). Nonresponsive cell lines are closed triangle and responsive are open triangles. […] Specificity for blockade of SCD1 is shown by rescue with the enzyme end product, oleic acid (OA).
Western blot analysis: Cell protein extracts were prepared using RIPA lysis buffer containing 50 mmol/L Tris, 5 mmol/L EDTA, 150 mmol/L NaCl, 0.1% SDS, 0.5% deoxycholate, 1% NP40, protease inhibitor cocktail, and phosphatase inhibitor. Tissue protein extracts were prepared from frozen samples using 1% SDS in 50 mmol/L pH 8.0 Tris buffer containing protease inhibitor cocktail and phosphatase inhibitor with brief sonication on ice. Electrophoresis, transfer, blocking, and antibody preparations were performed. The following primary antibodies were included: SCD1, c-Myc, pSrc Y418, Src, b-actin, PARP, cleaved caspase 3, survivin, cyclin D1. Secondary species-specific horseradish peroxidase-labeled antibodies were applied, and Supersignal Chemiluminescent Kit was used to perform detection.
In FIG. 6, c-Myc protein expression correlates with SCD1 sensitive cell lines. SCD1 protein is expressed in most cancer cells (HCC and ccRCC) while c-Myc protein expression appears to be expressed in SSI-4 sensitive cells.

[2] = tested on: hepatocellular carcinoma (HCC), cholangiocarcinoma (CCA), clear cell renal cell carcinoma (ccRCC) and melanoma (MM) cell lines; assay: Cell proliferation / viability assay (CyQuant or Coulter count), SSI-4 dose response; assay type: cell-based; details: responsive cell lines; 1 μM SSI-4 + 500 ug/ml BSA-OA, three days
Procedure: (§1) Cells were seeded at 5,000 cells/well in clear-bottom 96-well plates in triplicate. Drug treatment was applied at 1:1000 in reduced serum conditions (3%). After 72 hours, cells were washed with PBS, and stored at −80° C. prior to analysis using CyQuant® Proliferation Analysis Kit (Invitrogen) per manufacturers' protocol for relative fluorescence units. Alternatively, cells were plated 2×10^5/ well in 12-well plates (Genesee Scientific) in triplicate prior to drug treatment. After 120-hour treatment, cell number was established using a Coulter Particle Counter (Beckman). Oleic acid-albumin (Sigma Aldrich) was added to media at 5 μM, and was applied adjuvant to drug treatment. Drug stocks were prepared in DMSO (Sigma) at 1000×. IC50 dosing per cell line was calculated as described elsewhere (von Roemeling et al., Oncotarget, 9:3-20 (2018)).
(§2) SCD1 expression was examined in cell lines. Cells were treated with 1 μM SSI-4 for 3 days and a viability assay was used to identify SSI-4 sensitive and insensitive cell lines. Certain cell lines were also treated with varied doses (0.01-10,000 nM) of SSI-4 for 3 days. Not all cells that express SCD1 are sensitive to a SCD1 inhibitor (FIG. 1 and FIG. 2).

[3] = as above; assay type: cell-based; details: 72 h; responsive HCC, CCA, ccRCC and MM cell lines; dose response 0.01-10,000 nM, 3 day exposure
Procedure: as §1, §2

[4] = tested on: PDX tumor models for RCC, HCC, melanoma and CCA; assay: PDTX tumor models in Nod Scid gamma mice; assay type: in vivo, NSG mice; details: oral, 180 parts per million in chow=10 mg/kg daily; treatment from ~75 mm^3; models predicted responsive by IHC
Procedure: Animal models and drug testing: PDTX tumors (5×5×5-mm) were implanted into Nod Scid gamma mice with treatment (vehicle control or oral SSI-4) begun when tumors were approximately ˜75-100 mm^3. Tumor volume, food consumption and body weight were monitored twice weekly. Tumor tissue was collected and processes for IHC.
In FIG. 10, PDTX tumor models for HCC, ccRCC, CCA, and melanoma respond to SSI-4 or not correlate with predictions shown in FIG. 10. PDTX tumors were grown in the right flank of Nod Scid Gamma (NSG) mice with treatment beginning when tumors reach ˜75 mm^3 with the start of SSI-4 oral treatment. Tumor tissues were formalin fixed and paraffin block slides were stained for SCD1, c-Myc, LDHA, p-Src by standard IHC protocols for protein expression. PDTX models tested include RCC, HCC, melanoma, and CCA. * indicates statistical difference of SSI-4 from same day treatment control (P<0.05). Number in red predicts no response to SSI-4 (SCD1 inhibitor). […] Cells resistant to SSI-4 may have low or no cMyc and no or low LDHA with elevated p-Src. Cell with elevated cMyc and LDHA and low p-Src are responsive to SSI-4 or SCD1 inhibition.

[5] = tested on: SSI-4 sensitive HCC cells; assay: Soft agar colony formation; assay type: cell-based; details: 1 micromolar SSI-4
Procedure: Soft agar cultures were prepared by diluting 2× growth medium 1:1 in 1.5% SeaplaqueGTG agarose (Lonza), with 500 cells/plate in 60-mm culture dishes (Genesee Scientific). Colonies were stained with Giemsa (LabChem Inc.) and counted after 3 weeks.
In FIG. 3A, cells representative of HCC (top row), RCC (middle row) and MM (bottom row) are shown. In FIG. 3B, sensitive HCC cells are treated with 1 micromolar SSI-4 showing inhibition of colony formation (i.e. growth). In FIG. 3C, colonies are quantitated comparing control to SSI-4 treated cells. […] Each treatment group was repeated in triplicate. Colony number is the mean+/−standard deviation (S.D.). Thus, soft agar assay can independently predict response to SCD1 inhibitor but requires fresh live tumor tissue and laboratories such as the Copland laboratory that can access tissues, process tissues and perform the assays.

[6] = tested on: endoplasmic reticulum (ER) stress induced proteins; assay: mRNA expression of ER stress induced proteins by qPCR; assay type: cell-based; details: sensitive cells, 1 μM SSI-4 for 48 hours, fold change to untreated cells
[7] = tested on: Unsaturated fatty acids (UFAs); assay: Unsaturated fatty acids measured in media of cells; assay type: cell-based; details: SSI-4 sensitive cells, 1 μM SSI-4
[8] = tested on: c-Myc silenced SSI-4 responsive cells / c-Myc overexpressing nonresponsive cells; assay: Cell viability after c-Myc silencing (shRNA) or c-Myc overexpression; assay type: cell-based
Procedure: c-Myc gene silencing (shRNA) and c-Myc over-expression: Lentivirus shRNA pLKO.1 constructs were used to make self-inactivating shRNA lentiviruses for human c-Myc and a nontarget random scrambled sequence control. Transfection reagents Lipofectamine 2000 and ViraPower were used to generate lentiviruses using HEK293FT viral progenitor cells. Cells were incubated with lentivirus plus […] polybrene for 24 hours before clonal selection with puromycin.
In FIG. 8, overexpression of c-Myc in nonresponsive SSI-4 cells convert cells to SSI-4 sensitive (growth inhibited) cells. c-Myc mRNA expression is ˜2-fold elevated in cells infected with a c-Myc expression plasmid (FIG. 8A).

SMILES: CNC(=O)c1ccnc(NC(=O)N2CCC(Oc3ccccc3Cl)CC2)c1 [SSI-4, 2-{[4-(2-Chlorophenoxy)piperidine-1-carbonyl]amino}-N-methylpyridine-4-carboxamide]
- c-Myc and c-Myc regulated genes (cyclin D1 and survivin) protein expression ([1]; 1 μM SSI-4, restored by oleic acid BSA): down-regulated
- ER stress (BIP protein, Western) ([1]; HCC cell lines): upregulation of BIP protein
- apoptosis (cleaved PARP and cleaved caspase 3, Western) ([1]; HCC cell lines): Apoptotic cell death is induced
- cMyc protein (Western) ([1]; HCC cell lines, rescue by OA): down-regulates cMyc protein
- rescue of SSI-4 inhibition of cell proliferation by oleic acid (BSA-OA) [2]: complete rescue
- pIC50 [3]: 7.40 to 9.00
- tumor response (tumor volume) [4]: respond
- colony formation on soft agar [5]: blocked colony formation
- mRNA expression for ER stress induced proteins [6]: became elevated
- unsaturated fatty acids (UFAs) [7]: suppressed UFAs to levels equal to non-responsive cells
- sensitivity of cells silenced for c-Myc to SSI-4 treatment ([8]; SSI-4 responsive cells with c-Myc shRNA): become insensitive
- inhibition at 1 µM ([8]; c-Myc expressing (previously nonresponsive) cells, 1 uM SSI-4, read-out: enhanced growth inhibition): 33 to 45%
